From US20110086834A1, “ALKYNYL ALCOHOLS AS KINASE INHIBITORS” (AMGEN INC., priority 2008, published 2011)

Each molecule was assayed against T1, NIK (Homo sapiens, UniProt Q99558) (assay: homogenous time resolved fluorescence (HTRF) assay for NIK Ki measurement). Settings: not given.
T1 construct: Both assays utilize a truncated form of NIK containing only the catalytic domain; made in house; host or cells: baculovirus expression system (insect cells implied)
Type: biochemical

T1 sequence (Q99558 400-655 limits assumed): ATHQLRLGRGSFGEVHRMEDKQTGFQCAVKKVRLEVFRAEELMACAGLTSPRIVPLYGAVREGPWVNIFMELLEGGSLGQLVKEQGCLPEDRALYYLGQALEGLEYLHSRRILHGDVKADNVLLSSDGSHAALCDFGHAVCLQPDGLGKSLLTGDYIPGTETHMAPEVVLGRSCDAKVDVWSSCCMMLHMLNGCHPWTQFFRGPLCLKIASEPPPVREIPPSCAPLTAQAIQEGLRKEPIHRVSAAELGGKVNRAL

Ki [nM] | Structure (SMILES)
< 1000 | COCCOc1cnc(N)nc1-c1c[nH]c2ccc(C#CC(C)(C)O)cc12 [Example 224, 4-(3-(2-Amino-5-(2-methoxyethoxy)-4-pyrimidinyl)-1H-indol-5-yl)-2-methyl-3-butyn-2-ol]

Same assay, conditions: truncated NIK (catalytic domain only), autophosphorylation; 10 nM enzyme; 20, 100, 200 or 500 μM ATP; room temperature, 2 hours; read-out: Ki activity in the homogenous time resolved fluorescence (HTRF) assay for NIK

Structure (SMILES) | Ki [nM]
CC(O)(C#Cc1ccc2c(c1)N(c1ccnc(N)n1)CC2)c1nccs1 (centres unmarked) [Example 276, 4-(1-(2-Amino-4-pyrimidinyl)-2,3-dihydro-1H-indol-6-yl)-2-(1,3-thiazol-2-yl)-3-butyn-2-ol] | < 1000
COc1cc(Nc2nccc(-n3ccc4ccc(C#CC5(O)CCCC5)cc43)n2)cc(OC)c1OC [Example 259, 1-((1-(2-((3,4,5-tris(methyloxy)phenyl)amino)-4-pyrimidinyl)-1H-indol-6-yl)-ethynyl)cyclopentanol] | < 1000
CC(O)(C#Cc1ccc2c(c1)N(c1ccncc1)CC2(C)C)c1ncco1 (centres unmarked) [Example 307, 4-(3,3-Dimethyl-1-(4-pyridinyl)-2,3-dihydro-1H-indol-6-yl)-2-(1,3-oxazol-2-yl)-3-butyn-2-ol] | < 1000
Nc1ncc(F)c(N2CCc3ccc(C#CC4(O)CCCC4)cc32)n1 [Example 68, 1-((1-(2-amino-5-fluoro-4-pyrimidinyl)-2,3-dihydro-1H-indol-6-yl)ethynyl)cyclopentanol] | < 1000
CC(O)(C#Cc1ccc2ncc(-c3ccnc(N)n3)n2c1)c1nccs1 (centres unmarked) [Example 292, 4-(3-(2-Amino-4-pyrimidinyl)imidazo[1,2-a]pyridin-6-yl)-2-(1,3-thiazol-2-yl)-3-butyn-2-ol] | < 1000
COCCOc1cncnc1-c1c[nH]c2ccc(C#CC3(O)CCCC3)cc12 [Example 237, 1-((3-(5-(2-Methoxyethoxy)-4-pyrimidinyl)-1H-indol-5-yl)ethynyl)cyclopentanol] | < 1000
CC(O)(C#Cc1ccc2[nH]nc(-c3ccns3)c2c1)c1nccs1 (centres unmarked) [Example 83, 4-(3-(isothiazol-5-yl)-1H-indazol-5-yl)-2-(thiazol-2-yl)but-3-yn-2-ol] | < 1000
CC1(C)CN(c2ccncc2)c2cc(C#C[C@@](C)(O)c3nccs3)ccc21 [Example 306, (2R)-4-(3,3-dimethyl-1-(4-pyridinyl)-2,3-dihydro-1H-indol-6-yl)-2-(1,3-thiazol-2-yl)-3-Butyn-2-ol] | < 1000
CN1CCC2(CC1)CN(c1nc(N)nc3[nH]cnc13)c1cc(C#CC3(O)CCCC3)ccc12 [Example 187, 1-((1-(2-amino-9H-purin-6-yl)-1′-methylspiro[indoline-3,4′-piperidine]-6-yl)ethynyl)cyclopentanol] | < 1000
COCCn1cc(-c2nc(N)ncc2Cl)c2cc(C#CC3(O)CCCC3)ccc21 [Example 125, 1-(2-(3-(2-amino-5-chloropyrimidin-4-yl)-1-(2-methoxyethyl)-1H-indol-5-yl)ethynyl)cyclopentanol] | < 1000
CC(O)(C#Cc1ccc2c(c1)N(c1ncncn1)CC2(C)C)c1nccs1 (centres unmarked) [Example 38, 4-(3,3-dimethyl-1-(1,3,5-triazin-2-yl)-2,3-dihydro-1H-indol-6-yl)-2-(1,3-thiazol-2-yl)-3-butyn-2-ol] | < 1000
CC1(CO)CN(c2nc(N)nc3[nH]cnc23)c2cc(C#CC3(O)CCCC3)ccc21 (centres unmarked) [Example 74, 1-((1-(2-amino-9H-purin-6-yl)-3-(hydroxymethyl)-3-methyl-2,3-dihydro-1H-indol-6-yl)ethynyl)cyclopentanol] | < 1000
O=C(NCCCN1CCOCC1)c1cnccc1Nc1cccc(C#CC2(O)CCCC2)c1 [Example 253, 4-((3-((1-Hydroxycyclopentyl)ethynyl)phenyl)amino)-N-(3-(4-morpholinyl)propyl)-3-pyridinecarboxamide] | 1000 to 30000
Nc1ncc(Cl)c(-c2cn(CCN3CCOCC3)c3ccc(C#CC4(O)CCCC4)cc23)n1 [Example 126, 1-(2-(3-(2-amino-5-chloropyrimidin-4-yl)-1-(2-morpholinoethyl)-1H-indol-5-yl)ethynyl)cyclopentanol] | < 1000
CCN(CC)CCn1cc(-c2nc(N)ncc2Cl)c2cc(C#CC3(O)CCCC3)ccc21 [Example 127, 1-(2-(3-(2-amino-5-chloropyrimidin-4-yl)-1-(2-(diethylamino)ethyl)-1H-indol-5-yl)ethynyl)cyclopentanol] | < 1000
CC(O)(C#Cc1ccc2c(c1)N(c1ccnc(N)n1)CC2)c1ccncc1 (centres unmarked) [Example 272, 4-(1-(2-Amino-4-pyrimidinyl)-2,3-dihydro-1H-indol-6-yl)-2-(4-pyridinyl)-3-butyn-2-ol] | 1000 to 30000
Nc1ncc(Cl)c(-c2cn(C3CCNC3)c3ccc(C#CC4(O)CCCC4)cc23)n1 (centres unmarked) [Example 114, 1-(2-(3-(2-amino-5-chloropyrimidin-4-yl)-1-(pyrrolidin-3-yl)-1H-indol-5-yl)ethynyl)cyclopentanol] | < 1000
CC(O)(C#Cc1cccc(Nc2ccncc2C(F)(F)F)n1)c1nccs1 (centres unmarked) [Example 174, 2-(thiazol-2-yl)-4-(6-(3-(trifluoromethyl)pyridin-4-ylamino)pyridin-2-yl)but-3-yn-2-ol] | 1000 to 30000
Nc1ncc(Cl)c(-c2cn(CC(=O)N3CCOCC3)c3ccc(C#CC4(O)CCCC4)cc23)n1 [Example 128, 2-(3-(2-amino-5-chloropyrimidin-4-yl)-5-(2-(1-hydroxycyclopentyl)ethynyl)-1H-indol-1-yl)-1-morpholinoethanone] | < 1000
COCCOCCOc1cnc(N)nc1-c1c[nH]c2ccc(C#CC3(O)CCCC3)cc12 [Example 228, 1-((3-(2-Amino-5-(2-(2-methoxyethoxy)ethoxy)-4-pyrimidinyl)-1H-indol-5-yl)ethynyl)cyclopentanol] | < 1000

Now from value to molecule:

Ki [nM] | Structure (SMILES)
< 1000 | CC1(CO)CN(c2nc(N)ncc2F)c2cc(C#CC3(O)CCCC3)ccc21 (centres unmarked) [Example 66, 1-((1-(2-amino-5-fluoro-4-pyrimidinyl)-3-(hydroxymethyl)-3-methyl-2,3-dihydro-1H-indol-6-yl)ethynyl)cyclopentanol]
< 1000 | Cc1cc(C(C)(O)C#Cc2ccc3c(c2)N(c2nc(N)ncc2Cl)CC32CCOCC2)no1 (racemic) [Example 210, (rac)-4-(1-(2-Amino-5-chloro-4-pyrimidinyl)-1,2,2′,3′,5′,6′-hexahydrospiro[indole-3,4′-pyran]-6-yl)-2-(5-methyl-3-isoxazolyl)-3-butyn-2-ol]
1000 to 30000 | Cn1cncc1C(O)C#Cc1ccc2c(c1)N(c1nc(N)ncc1Cl)CC2(C)C (single isomer, unassigned) [Example 42, (1R*)-3-(1-(2-amino-5-chloro-4-pyrimidinyl)-3,3-dimethyl-2,3-dihydro-1H-indol-6-yl)-1-(1-methyl-1H-imidazol-5-yl)-2-propyn-1-ol]
1000 to 30000 | CN1CCC2(C1)CN(c1nc(N)ncc1Cl)c1cc(C#C[C@](C)(O)c3nccs3)ccc12 (single isomer, unassigned) [Example 194, (2S)-4-((3R*)-1-(2-Amino-5-chloro-4-pyrimidinyl)-1′-methyl-1,2-dihydrospiro[indole-3,3′-pyrrolidin]-6-yl)-2-(1,3-thiazol-2-yl)-3-butyn-2-ol]
< 1000 | Cc1cc(C(C)(O)C#Cc2ccc(OC3CCOCC3)c(Nc3nc(N)ncc3Cl)c2)no1 (centres unmarked) [Example 148, 4-(3-(2-Amino-5-chloropyrimidin-4-ylamino)-4-(tetrahydro-2H-pyran-4-yloxy)phenyl)-2-(5-methylisoxazol-3-yl)but-3-yn-2-ol]
< 1000 | Cc1cc(C(C)(O)C#Cc2ccc3c(c2)N(c2nc(N)ncc2Cl)CC32CCOC2)no1 (single isomer, unassigned) [Example 204, 4-((3S*)-1′-(2-Amino-5-chloro-4-pyrimidinyl)-1′,2′,4,5-tetrahydrospiro[furan-3,3′-indol]-6′-yl)-2-(5-methyl-3-isoxazolyl)-3-butyn-2-ol]
1000 to 30000 | Cc1nonc1C(C)(O)C#Cc1ccc2c(c1)N(c1nc(N)ncc1Cl)CC2 (centres unmarked) [Example 6, 4-(1-(2-amino-5-chloropyrimidin-4-yl)indolin-6-yl)-2-(4-methyl-1,2,5-oxadiazol-3-yl)but-3-yn-2-ol]
< 1000 | COCCC1(C)CN(c2nc(N)ncc2Cl)c2cc(C#CC3(O)CCCC3)ccc21 (centres unmarked) [Example 64, 1-((1-(2-amino-5-chloro-4-pyrimidinyl)-3-(2-methoxyethyl)-3-methyl-2,3-dihydro-1H-indol-6-yl)ethynyl)cyclopentanol]
1000 to 30000 | CC(O)(C#Cc1ccc2c(c1)N(c1nc(N)ncc1Cl)CC2)c1nc(C#N)cs1 (centres unmarked) [Example 9, 2-(4-(1-(2-amino-5-chloropyrimidin-4-yl)indolin-6-yl)-2-hydroxybut-3-yn-2-yl)thiazole-4-carbonitrile]
< 1000 | Cc1ccc(C(C)(O)C#Cc2ccc3c(c2)N(c2ccnc(N)n2)CC3)o1 (centres unmarked) [Example 275, 4-(1-(2-Amino-4-pyrimidinyl)-2,3-dihydro-1H-indol-6-yl)-2-(5-methyl-2-furanyl)-3-Butyn-2-ol]
< 1000 | CN1CCC2(C1)CN(c1nc(N)ncc1Cl)c1cc(C#CC3(O)CCCC3)ccc12 (single isomer, unassigned) [Example 192, 1-(((3S*)-1-(2-Amino-5-chloro-4-pyrimidinyl)-1′-methyl-1,2-dihydrospiro[indole-3,3′-pyrrolidin]-6-yl)ethynyl)cyclopentanol]
< 1000 | CC(O)(C#Cc1ccc2c(c1)N(c1ccnc(N)n1)CC2)c1ccco1 (centres unmarked) [Example 269, 4-(1-(2-Amino-4-pyrimidinyl)-2,3-dihydro-1H-indol-6-yl)-2-(2-furanyl)-3-butyn-2-ol]
< 1000 | Cc1cc(C(C)(O)C#Cc2ccc3c(c2)N(c2nc(N)ncc2Cl)CC32CCS(=O)(=O)CC2)no1 (racemic) [Example 216, (rac)-4-(1-(2-Amino-5-chloro-4-pyrimidinyl)-1′,1′-dioxido-1,2,2′,3′,5′,6′-hexahydrospiro[indole-3,4′-thiopyran]-6-yl)-2-(5-methyl-3-isoxazolyl)-3-butyn-2-ol]
< 1000 | Cc1ccc(C(C)(O)C#Cc2ccc3c(c2)N(c2ccnc(N)n2)CC3)s1 (centres unmarked) [Example 280, 4-(1-(2-Amino-4-pyrimidinyl)-2,3-dihydro-1H-indol-6-yl)-2-(5-methyl-2-thienyl)-3-butyn-2-ol]
